How the values were obtained:
GSPT1 = GSPT1 (Homo sapiens, UniProt P15170+Q96SW2); assay: HiBiT degradation assay, GSPT1, Procedure A; type: cell-based; parameters: HiBit-GSPT1 KI HEK293(LgBit) Cells; host or cells: HEK293(LgBit) knock-in cells; conditions: six hours
Outline: (§1)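 Luminescence from HiBiT lytic detection reports remaining tagged protein after cells sit six hours at 37° C with compound across ten concentrations (10 μM down to 0.005 μM, 0.1% DMSO). A 4-parameter curve fit gives DC50 and Ymin.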

CK1α = molecular target: T1, CK1α (Homo sapiens, UniProt P48729+Q96SW2); assay: HiBiT degradation assay, CK1α, Procedure A; type: cell-based; conditions: six hours
T1 construct: CSNK1A1-HiBit KI HEK293(LgBit) Cells; host or cells: HEK293(LgBit) knock-in cells
T1 sequence (P48729 whole entry): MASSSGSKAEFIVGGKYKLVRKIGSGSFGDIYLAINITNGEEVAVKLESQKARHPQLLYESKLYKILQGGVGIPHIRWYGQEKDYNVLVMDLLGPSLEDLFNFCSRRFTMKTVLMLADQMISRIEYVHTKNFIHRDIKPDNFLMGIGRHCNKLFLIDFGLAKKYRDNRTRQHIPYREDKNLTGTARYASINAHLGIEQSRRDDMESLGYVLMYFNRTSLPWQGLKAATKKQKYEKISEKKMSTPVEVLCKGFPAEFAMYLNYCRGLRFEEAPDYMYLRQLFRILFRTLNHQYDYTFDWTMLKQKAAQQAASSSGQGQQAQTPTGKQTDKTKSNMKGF
T1 sequence (Q96SW2 whole entry): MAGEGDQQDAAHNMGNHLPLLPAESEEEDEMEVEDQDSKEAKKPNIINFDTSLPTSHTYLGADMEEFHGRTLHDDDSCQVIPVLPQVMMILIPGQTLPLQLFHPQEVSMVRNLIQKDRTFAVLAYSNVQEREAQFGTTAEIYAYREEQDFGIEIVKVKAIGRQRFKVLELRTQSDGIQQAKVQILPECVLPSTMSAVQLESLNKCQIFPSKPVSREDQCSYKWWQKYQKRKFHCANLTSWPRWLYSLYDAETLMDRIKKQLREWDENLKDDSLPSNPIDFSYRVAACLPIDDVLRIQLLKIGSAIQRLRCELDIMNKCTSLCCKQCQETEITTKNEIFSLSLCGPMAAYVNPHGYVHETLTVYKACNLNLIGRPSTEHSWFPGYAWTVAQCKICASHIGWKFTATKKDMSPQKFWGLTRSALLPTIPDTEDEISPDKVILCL
T1 sequence (Q16531 whole entry partner): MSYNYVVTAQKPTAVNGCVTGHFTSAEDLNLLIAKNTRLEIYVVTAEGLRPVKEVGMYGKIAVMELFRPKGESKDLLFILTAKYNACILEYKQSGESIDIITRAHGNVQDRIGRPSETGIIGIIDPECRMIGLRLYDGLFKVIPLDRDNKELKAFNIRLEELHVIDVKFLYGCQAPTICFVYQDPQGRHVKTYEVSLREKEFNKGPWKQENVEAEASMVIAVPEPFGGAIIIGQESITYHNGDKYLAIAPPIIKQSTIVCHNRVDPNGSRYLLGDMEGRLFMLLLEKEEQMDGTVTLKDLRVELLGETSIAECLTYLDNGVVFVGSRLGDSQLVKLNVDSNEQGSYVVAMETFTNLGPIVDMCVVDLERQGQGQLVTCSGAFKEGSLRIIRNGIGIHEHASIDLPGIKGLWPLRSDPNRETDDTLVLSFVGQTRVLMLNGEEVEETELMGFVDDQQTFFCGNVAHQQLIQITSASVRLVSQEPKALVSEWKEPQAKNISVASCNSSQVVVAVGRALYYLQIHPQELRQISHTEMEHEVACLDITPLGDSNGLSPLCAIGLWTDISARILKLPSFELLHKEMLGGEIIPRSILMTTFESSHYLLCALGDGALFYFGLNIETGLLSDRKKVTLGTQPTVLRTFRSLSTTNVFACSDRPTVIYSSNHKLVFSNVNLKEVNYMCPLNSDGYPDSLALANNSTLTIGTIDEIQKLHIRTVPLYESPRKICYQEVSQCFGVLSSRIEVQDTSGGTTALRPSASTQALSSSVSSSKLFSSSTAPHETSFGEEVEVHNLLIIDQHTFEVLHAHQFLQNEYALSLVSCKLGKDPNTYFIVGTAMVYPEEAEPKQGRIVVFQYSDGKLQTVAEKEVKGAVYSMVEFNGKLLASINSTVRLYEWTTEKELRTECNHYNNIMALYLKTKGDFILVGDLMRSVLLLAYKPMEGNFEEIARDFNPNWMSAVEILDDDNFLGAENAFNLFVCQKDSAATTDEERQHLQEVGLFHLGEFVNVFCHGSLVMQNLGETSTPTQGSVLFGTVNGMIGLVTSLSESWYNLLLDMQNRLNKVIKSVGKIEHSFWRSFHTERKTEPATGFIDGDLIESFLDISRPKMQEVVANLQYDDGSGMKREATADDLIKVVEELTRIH
Outline: as §1

Sequence of GSPT1 (P15170 whole entry): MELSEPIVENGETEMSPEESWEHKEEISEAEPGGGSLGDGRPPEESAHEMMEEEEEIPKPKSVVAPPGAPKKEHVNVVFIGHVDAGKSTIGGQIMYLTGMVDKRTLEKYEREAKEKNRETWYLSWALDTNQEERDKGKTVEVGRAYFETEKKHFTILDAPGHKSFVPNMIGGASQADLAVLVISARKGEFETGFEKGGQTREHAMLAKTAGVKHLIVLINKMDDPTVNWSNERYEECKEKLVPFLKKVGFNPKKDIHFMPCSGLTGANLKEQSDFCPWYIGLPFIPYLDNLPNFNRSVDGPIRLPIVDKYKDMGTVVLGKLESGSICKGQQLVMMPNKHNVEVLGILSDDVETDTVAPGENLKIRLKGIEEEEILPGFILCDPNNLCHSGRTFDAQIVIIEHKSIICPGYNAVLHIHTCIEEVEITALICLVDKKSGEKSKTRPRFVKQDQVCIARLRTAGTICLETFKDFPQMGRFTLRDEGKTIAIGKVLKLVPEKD
Sequence of GSPT1 (Q96SW2 whole entry): as the sequence (Q96SW2 whole entry) above
Sequence of GSPT1 (Q16531 whole entry partner): as the sequence (Q16531 whole entry partner) above

SMILES | DC50 (GSPT1) [nM] | GSPT1 Ymin (GSPT1) | CK1α Ymin (CK1α) | DC50 (CK1α) [nM]
Cc1cc(-c2c(-c3ccc4c(c3)CN(C3CCC(=O)NC3=O)C4=O)cnn2C)n(C)n1 (stereo not drawn) [Example 454] | ≥ 25 | F (F = >75-100% remaining) | F (F = >75-100% remaining) | ≥ 25
Cn1ncc(-c2ccc3c(c2)CN(C2CCC(=O)NC2=O)C3=O)c1-c1cccc(C#N)n1 (stereo not drawn) [Example 455] | ≥ 25 | F (F = >75-100% remaining) | E (E = >25-75% remaining) | ≥ 25
COc1cncc(-c2c(-c3ccc4c(c3)CN(C3CCC(=O)NC3=O)C4=O)cnn2C)c1 (stereo not drawn) [Example 456] | ≥ 25 | F (F = >75-100% remaining) | E (E = >25-75% remaining) | ≥ 25
Cn1ncc(-c2ccc3c(c2)CN(C2CCC(=O)NC2=O)C3=O)c1-c1ccn(C)c(=O)c1 (stereo not drawn) [Example 457] | ≥ 25 | F (F = >75-100% remaining) | E (E = >25-75% remaining) | ≥ 25
COc1ccncc1-c1c(-c2ccc3c(c2)CN(C2CCC(=O)NC2=O)C3=O)cnn1C (stereo not drawn) [Example 458] | < 25 | F (F = >75-100% remaining) | F (F = >75-100% remaining) | < 25
Cn1ncc(-c2ccc3c(c2)CN(C2CCC(=O)NC2=O)C3=O)c1-c1ccc(=O)n(C)c1 (stereo not drawn) [Example 459] | ≥ 25 | F (F = >75-100% remaining) | E (E = >25-75% remaining) | < 25
Cn1ncc(-c2ccc3c(c2)CN(C2CCC(=O)NC2=O)C3=O)c1-c1ccc2nc[nH]c2c1 (stereo not drawn) [Example 460] | ≥ 25 | F (F = >75-100% remaining) | D (D = >10- 25% remaining) | ≥ 25
Cn1ncc(-c2ccc3c(c2)CN(C2CCC(=O)NC2=O)C3=O)c1-c1ccc2cncn2c1 (stereo not drawn) [Example 461] | ≥ 25 | F (F = >75-100% remaining) | C (C = 0-10% remaining) | ≥ 25
Cn1ncc(-c2ccc3c(c2)CN(C2CCC(=O)NC2=O)C3=O)c1-c1ccc2nccnc2c1 (stereo not drawn) [Example 462] | ≥ 25 | F (F = >75-100% remaining) | E (E = >25-75% remaining) | ≥ 25
Cn1ncc(-c2ccc3c(c2)CN(C2CCC(=O)NC2=O)C3=O)c1-c1ccc2ncn(C)c2c1 (stereo not drawn) [Example 463] | ≥ 25 | F (F = >75-100% remaining) | D (D = >10- 25% remaining) | ≥ 25
Cn1ncc(-c2ccc3c(c2)CN(C2CCC(=O)NC2=O)C3=O)c1-c1cnn(Cc2cccnc2)c1 (stereo not drawn) [Example 464] | ≥ 25 | F (F = >75-100% remaining) | F (F = >75-100% remaining) | ≥ 25
Cn1ncc(-c2ccc3c(c2)CN(C2CCC(=O)NC2=O)C3=O)c1-c1ccc(N2CCCCC2)nc1 (stereo not drawn) [Example 465] | ≥ 25 | F (F = >75-100% remaining) | E (E = >25-75% remaining) | ≥ 25
Cn1ncc(-c2ccc3c(c2)CN(C2CCC(=O)NC2=O)C3=O)c1-c1ccc(N2CCOCC2)nc1 (stereo not drawn) [Example 466] | ≥ 25 | F (F = >75-100% remaining) | F (F = >75-100% remaining) | < 25
Cn1ncc(-c2ccc3c(c2)CN(C2CCC(=O)NC2=O)C3=O)c1-c1cncc(OCc2ccccc2)c1 (stereo not drawn) [Example 467] | ≥ 25 | – | F (F = >75-100% remaining) | ≥ 25
Cn1ncc(-c2ccc3c(c2)CN(C2CCC(=O)NC2=O)C3=O)c1-c1cn[nH]c1 (stereo not drawn) [Example 468] | ≥ 25 | F (F = >75-100% remaining) | E (E = >25-75% remaining) | ≥ 25
Cn1ncc(-c2ccc3c(c2)CN(C2CCC(=O)NC2=O)C3=O)c1-c1cc[nH]n1 (stereo not drawn) [Example 469] | ≥ 25 | F (F = >75-100% remaining) | D (D = >10- 25% remaining) | ≥ 25
Cn1ccc(-c2c(-c3ccc4c(c3)CN(C3CCC(=O)NC3=O)C4=O)cnn2C)n1 (stereo not drawn) [Example 470] | ≥ 25 | F (F = >75-100% remaining) | E (E = >25-75% remaining) | ≥ 25
Cn1ncc(-c2ccc3c(c2)CN(C2CCC(=O)NC2=O)C3=O)c1-c1cccs1 (stereo not drawn) [Example 471] | ≥ 25 | F (F = >75-100% remaining) | C (C = 0-10% remaining) | < 25
Cc1ncccc1-c1c(-c2ccc3c(c2)CN(C2CCC(=O)NC2=O)C3=O)cnn1C (stereo not drawn) [Example 472] | ≥ 25 | F (F = >75-100% remaining) | E (E = >25-75% remaining) | < 25
